Source: patent US8802597B2, “Herbicidal pyrimidines” (E I du Pont de Nemours and Company, priority 2003, dated 2014)
Read-outs that look alike come from different tables or passages of the source.

Assays:
Assay in all cases: Test A pre/postemergence
Assay type in all cases: in vivo
[1] = system: barnyardgrass (Echinochloa crus-galli); conditions: Echinochloa crus-galli, 240 h, read-out: Plant response rating, Barnyardgrass; for pest or weed control at 125 g/ha: 125 g ai/ha; for pest or weed control at 500 g/ha: 500 g ai/ha
In short: (§1)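 Pre/post greenhouse screen; loam/sand soil; solvent + surfactant formulation; pre = directed soil spray at planting, post = 1–2 leaf plants, 2–10 cm; ~10 d; visual 0–100 rating vs untreated.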

[2] = system: crabgrass (Digitaria sanguinalis); conditions: Digitaria sanguinalis, 240 h, read-out: Plant response rating, Crabgrass; for pest or weed control at 125 g/ha: 125 g ai/ha; for pest or weed control at 500 g/ha: 500 g ai/ha
In short: as §1

[3] = system: giant foxtail (Setaria faberi); conditions: Setaria faberi, 240 h, read-out: Plant response rating, Foxtail, Giant; for pest or weed control at 125 g/ha: 125 g ai/ha; for pest or weed control at 500 g/ha: 500 g ai/ha
In short: as §1

[4] = system: morningglory (Ipomoea spp.); conditions: Ipomoea, 240 h, read-out: Plant response rating, Morningglory; for pest or weed control at 125 g/ha: 125 g ai/ha; for pest or weed control at 500 g/ha: 500 g ai/ha
In short: as §1

[5] = system: redroot pigweed (Amaranthus retroflexus); conditions: Amaranthus retroflexus, 240 h, read-out: Plant response rating, Pigweed; for pest or weed control at 125 g/ha: 125 g ai/ha; for pest or weed control at 500 g/ha: 500 g ai/ha
In short: as §1

[6] = system: velvetleaf (Abutilon theophrasti); conditions: Abutilon theophrasti, 240 h, read-out: Plant response rating, Velvetleaf; for pest or weed control at 125 g/ha: 125 g ai/ha; for pest or weed control at 500 g/ha: 500 g ai/ha
In short: as §1

[7] = post-emergence, Postemergence, 0 to 100 scale (0 no effect, 100 complete control)
[8] = pre-emergence, Preemergence, 0 to 100 scale where 0 is no effect and 100 is complete control, approximately ten days

SMILES	pest or weed control at 125 g/ha [1, 7]	pest or weed control at 500 g/ha [1, 7]	pest or weed control at 125 g/ha [1, 8]	pest or weed control at 500 g/ha [1, 8]	pest or weed control at 125 g/ha [2, 7]	pest or weed control at 500 g/ha [2, 7]	pest or weed control at 125 g/ha [2, 8]	pest or weed control at 500 g/ha [2, 8]	pest or weed control at 125 g/ha [3, 7]	pest or weed control at 500 g/ha [3, 7]	pest or weed control at 125 g/ha [3, 8]	pest or weed control at 500 g/ha [3, 8]	pest or weed control at 125 g/ha [4, 7]	pest or weed control at 500 g/ha [4, 7]	pest or weed control at 125 g/ha [4, 8]	pest or weed control at 500 g/ha [4, 8]	pest or weed control at 125 g/ha [5, 7]	pest or weed control at 500 g/ha [5, 7]	pest or weed control at 125 g/ha [5, 8]	pest or weed control at 500 g/ha [5, 8]	also measured
Nc1nc(C2CC2)nc(C(=O)[O-])c1Br.[Na+] [Compound 113, 6-amino-5-bromo-2-cyclopropyl-4-pyrimidinecarboxylic acid monosodium salt]	55%	90%	25%	80%	25%	55%	15%	70%	65%	85%	15%	80%	90%	90%	90%	100%	80%	90%	80%	90%	pest or weed control at 125 g/ha [6, 7]: 80%; pest or weed control at 500 g/ha [6, 7]: 95%; pest or weed control at 125 g/ha [6, 8]: 65%; pest or weed control at 500 g/ha [6, 8]: 95%
COC(=O)c1nc(-c2ccc(Br)cc2)nc(N)c1Cl [Compound 96, methyl 6-amino-2-(4-bromophenyl)-5-chloro-4-pyrimidinecarboxylate]	20%	25%	5%	10%	5%	20%	50%	65%	25%	35%	5%	10%	60%	65%	15%	80%	70%	85%	80%	80%	pest or weed control at 125 g/ha [6, 7]: 80%; pest or weed control at 500 g/ha [6, 7]: 85%; pest or weed control at 125 g/ha [6, 8]: 65%; pest or weed control at 500 g/ha [6, 8]: 80%
CCOC(=O)c1nc(-c2ccc3c(c2)OCO3)nc(N)c1Cl [Compound 74]	30%	70%	0%	50%	30%	60%	20%	50%	60%	70%	0%	40%	40%	30%	0%	30%	60%	70%	0%	40%	pest or weed control at 125 g/ha [6, 7]: 70%; pest or weed control at 500 g/ha [6, 7]: 80%; pest or weed control at 125 g/ha [6, 8]: 30%; pest or weed control at 500 g/ha [6, 8]: 50%
